Consider seven molecules from ChEMBL document CHEMBL1201862, “PubChem BioAssay data set” (2004).

Assay in all cases: growth of human tumour cells (NCI), 48 h
Assay [1] deals with A549.
The test system of assay [2] is CCRF-CEM.
Assay [3] deals with HCT-116.
Assay [4] concerns HL-60.
Assay [5] concerns IGROV-1.
The subject of assay [6] is M14.
Assay [7] has as its system MCF7.
Assay [8] has as its system MDA-MB-231.
The subject of assay [9] is MDA-N.
In assay [10] the test system is MOLT-4.
Assay [11] has as its system OVCAR-3.
The subject of assay [12] is OVCAR-8.
Assay [13] has as its system PC-3.
In assay [14] the test system is SF-539.
Assay [15] deals with SNB-19.
Assay [16] relates to SR.
Assay [17] concerns SW-620.
Assay [18] has as its system TK-10.
Assay [19] relates to UACC-257.
Assay [20] concerns UO-31.

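Method: 48-hour compound exposure of cells in 96-well plates, five concentrations, linear interpolation of endpoints. At the GI50, growth is halved.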 Calls of active or inactive are those of the source. Rule as the data show it: active = GI50 up to about 1.1 µM and inactive = higher.

Turning to `CCN1C/C(=C\c2cc(OC)c(OC)c(OC)c2)C2=NN(c3ccccc3)C(c3cc(OC)c(OC)c(OC)c3)C2C1` (stereo not given), the GI50 in assay [1] was 1.5 µM (inactive); in assay [2], 1.81 µM (inactive); in assay [3], 1.89 µM (inactive); in assay [4], 3.03 µM (inactive); in assay [5] it was 6.43 µM (inactive); in [6], 1.7 µM (inactive). Also, the GI50 was 6 µM (inactive) in assay [7]; 0.525 µM (active) in assay [8]; 2.41 µM (inactive) in assay [9]; 5.05 µM (inactive) in assay [10]; 3.63 µM (inactive) in assay [11]; 1.61 µM (inactive) in assay [12]. Also, the GI50 was 1.08 µM (active) in assay [13]; 0.535 µM (active) in [14]; 1.97 µM (inactive) in assay [15]; 2.03 µM (inactive) in assay [16]; 2.56 µM (inactive) in assay [17]; 1.65 µM (inactive) in assay [18]. Moreover, the GI50 was 3.35 µM (inactive) in assay [19] and 2.08 µM (inactive) in [20].

On to `CC1CC[C@@]2(OC1)O[C@H]1C[C@H]3[C@@H]4CC[C@H]5C[C@@H](OC6OC(CO)C(OC7OC(CO)C(OC8OC(CO)C(O)C(OC9OC(C)C(OC%10OC(C)C(O)C(O)C%10O)C(O)C9O)C8OC8OCC(O)C(O)C8O)C(O)C7O)C(O)C6O)CC[C@]5(C)[C@H]4CC(=O)[C@]3(C)[C@H]1[C@@H]2C` (stereo not given in full), for which the GI50 in assay [1] was 23.2 µM (inactive); in assay [2], 12.2 µM (inactive); in [3], 23.4 µM (inactive); in assay [4], 12.9 µM (inactive); in assay [5], 20.5 µM (inactive); in [6], 20.8 µM (inactive). In addition, the GI50 in [7] was 17.7 µM (inactive); in assay [8], 16.1 µM (inactive); in assay [9], 20 µM (inactive); in assay [10], 18.1 µM (inactive); in assay [11], 22.6 µM (inactive); in assay [12], 20.7 µM (inactive). Further, the GI50 is 16.7 µM (inactive) in [13]; 14.8 µM (inactive) in [14]; 20.5 µM (inactive) in assay [15]; 14.6 µM (inactive) in assay [16]; 20.3 µM (inactive) in [17]; 17.7 µM (inactive) in assay [18]. Also, the GI50 in assay [19] was 18.2 µM (inactive); in assay [20], 19.2 µM (inactive).

Turning to `Cc1nn(C(=O)c2ccncc2)c2c1C(c1ccc([N+](=O)[O-])cc1)SC(=N)N2` (stereo not given), the GI50 in [1], in assay [2], in assay [3], in assay [4], in assay [5] and in [6] was > 100 µM (inactive) throughout. The GI50 in assay [7], in assay [8], in assay [9], in assay [10], in assay [11] and in assay [12] was > 100 µM (inactive) each time. Also, the GI50 in assay [13], in assay [14], in assay [15], in assay [16], in assay [17] and in assay [18] was > 100 µM (inactive) in each case. The GI50 in assay [19] and in assay [20] was > 100 µM (inactive) each time.

Turning to `CC(C)C(=O)/C=C/c1c(Cl)cccc1Cl`, the GI50 was 4.15 µM (inactive) in assay [1]; 11.6 µM (inactive) in assay [2]; 1.64 µM (inactive) in assay [3]; 5.36 µM (inactive) in [4]; 3.75 µM (inactive) in assay [5]; 2.61 µM (inactive) in assay [6]. The GI50 in assay [7] is 3.76 µM (inactive); in assay [8], 4.28 µM (inactive); in [9], 3.05 µM (inactive); in assay [10], 4.63 µM (inactive); in [11], 2.41 µM (inactive); in assay [12] it was 3.86 µM (inactive). The GI50 was 11.5 µM (inactive) in assay [13]; 3.04 µM (inactive) in assay [14]; 10.8 µM (inactive) in assay [15]; 1.91 µM (inactive) in assay [16]; 2.98 µM (inactive) in assay [17]; 12.1 µM (inactive) in assay [18]. The GI50 is 7.41 µM (inactive) in assay [19] and 4.3 µM (inactive) in assay [20].

For `O=S(=O)(c1ccccc1)N1CCCC(c2ccccc2)CC1` (stereo not given), the GI50 in assay [1] is 27.2 µM (inactive); in assay [2], 33.8 µM (inactive); in assay [3] it was 38.3 µM (inactive); in assay [4], 9.75 µM (inactive); in assay [5], > 100 µM (inactive); in assay [6], > 100 µM (inactive). Besides, the GI50 was 24 µM (inactive) in assay [7]; 30.4 µM (inactive) in assay [8]; 64.6 µM (inactive) in [9]; 15.2 µM (inactive) in [10]; 53.2 µM (inactive) in assay [11]; 37.2 µM (inactive) in assay [12]. Further, the GI50 is 30.6 µM (inactive) in [13]; > 100 µM (inactive) in [14]; 93.8 µM (inactive) in assay [15]; 16.9 µM (inactive) in assay [16]; 33 µM (inactive) in assay [17]; 51.9 µM (inactive) in [18]. Besides, the GI50 in assay [19] is 38.9 µM (inactive); in assay [20] it was 55 µM (inactive).

Regarding `CCOC(=O)/C(C#N)=C/N(CC)/N=C/c1ccccc1`, the GI50 in assay [1], in assay [2], in [3], in assay [4], in assay [5] and in assay [6] was > 100 µM (inactive) throughout. The GI50 in assay [7] was > 100 µM (inactive); in [8] it was > 100 µM (inactive); in [9], > 100 µM (inactive); in assay [10], > 100 µM (inactive); in assay [11], > 100 µM (inactive); in [12] it was 81.3 µM (inactive). The GI50 in [13] is > 100 µM (inactive); in assay [14] it was 54.7 µM (inactive); in assay [15], > 100 µM (inactive); in [16] it was > 100 µM (inactive); in assay [17], > 100 µM (inactive); in assay [18], > 100 µM (inactive). Further, the GI50 in [19] and in assay [20] was > 100 µM (inactive) throughout.

Take `CC(C)(C)[Si](C)(C)OCC1CCC(n2cnc3c(=O)[nH]cnc32)O1` (stereo not given): the GI50 was > 100 µM (inactive) in assay [1]; 68.5 µM (inactive) in [2]; > 100 µM (inactive) in assay [3]; 74.8 µM (inactive) in assay [4]; > 100 µM (inactive) in assay [5]; > 100 µM (inactive) in [6]. The GI50 in assay [7] was > 100 µM (inactive); in assay [8] it was > 100 µM (inactive); in assay [9], > 100 µM (inactive); in assay [10] it was 30.2 µM (inactive); in assay [11] it was > 100 µM (inactive); in assay [12] it was 94.4 µM (inactive). Further, the GI50 is > 100 µM (inactive) in [13]; > 100 µM (inactive) in assay [14]; > 100 µM (inactive) in [15]; 35.3 µM (inactive) in assay [16]; > 100 µM (inactive) in [17]; > 100 µM (inactive) in assay [18]. Besides, the GI50 in assay [19] and in [20] was > 100 µM (inactive) in each case.
